The values below come from patent US20080220416A1, “Compositions for Inhibiting Cell Growth and Inducing Apoptosis in Cancer Cells and Methods of Use Thereof” (THE BOARD OF TRUSTEES OF THE UNIVERSITY OF ILLINOI, priority 2004, published 2008).

For one experiment, the system named is cyclins A and B1. Kind of experiment: Cyclin expression in MDA-MB231 cells (ribonuclease protection assay, Western blot). It is filed as cell-based, human. As to the method:
To explore the effects on Notch-1 siRNA on the expression of cyclins, the main regulators of cell cycle progression, ribonuclease protection assays and Western blots on Notch-1 siRNA-treated cells were performed. Transfection of the MBA-MD231 cells with Notch-1 siRNA (5′-AAGTGTCTGAGGCCAGCAAGA-3′) (SEQ ID NO. 1) or control siRNA (5′-AACAGTCGCGTTTGCGACTGG-3′) (SEQ ID NO: 5), was performed as described above. Ribonuclease protection assays were performed by first preparing total RNA using a RNeasy Mini kit (QIAGEN Cat. #74104) according to the manufacturer's instructions. The multi-probe template set hCYC-1 (containing DNA templates for cyclin A, cyclin B, cyclin C, cyclin D1, cyclin D2, cyclin D3, cyclin A1 L32 and GAPDH) was purchased from BD Biosciences (Cat. # 556189). The DNA template was used to synthesize a [^32P]UTP (10 mCi/ml, Amersham Bioscience) labelled probe in the presence of a GACU pool using a […] RNA-polymerase (BD Bioscience RiboQuant RPA starter package, Cat. # 556144). Hybridization with 20 μg of each target RNA was performed at 56° C. overnight, followed by digestion with RNAse A and T1 according to the BD Bioscience standard protocol. After proteinase K treatment, samples were precipitated, loaded on a 4.75% acrylamide-urea gel, and run at 55 W with 0.5×TBE. Gels were dried in the gel dryer under vacuum for 2 h at 90° C. Then gels were exposed on Kodak film (Eastman Kodak, Rochester, N.Y.) with intensifying screens and developed at −70° C. Western blots were performed as described above. […] Western blot data confirmed these findings. […] CDK1 levels were only modestly affected. Cyclin A/cdk2 phosphorylates E2F-1/DP complexes at the end of S-phase, inactivating them. This prevents a re-initiation of DNA replication and assures that the genome is replicated only once at each S phase. Failure of cyclin A/cdk2 to inactivate E2F results in inappropriately persistent E2F activity, which may lead to apoptosis. E2F-1 is known to upregulate its own transcription. […]
On the technique in general: A western blot detects proteins with antibodies after separation by electrophoresis.

The subject of another experiment is RPMI8226 myeloma cells. Description: Apoptosis of myeloma cell line RPMI8226 (Annexin V-FITC). It is filed as cell-based. As to conditions: for apoptotic response: after 18 hrs. As to the method:
(§1) The cells were evaluated for induction of NOXA and an increase in cleaved caspase 3, by Western blot analysis and for cell viability using APO TARGET Annexin V-FITC staining kits (Biosource) as described above. The caspase 3 antibody was purchased from Abcam (Cambridge, Mass.). […] At a concentration of 10 μM, bortezomib induces approximately equal NOXA levels compared to the other proteasome inhibitor tested (MG-132) and the dual inhibitor z-Leu-Leu-Nle-CHO. The induction of NOXA coincided with the appearance of cleaved caspase 3, which is involved in the final stage of cell death. […] FIG. 12 is graph showing representative results from bortezomib treatment. The induction of apoptosis is concentration-dependent (FIG. 12); with doses as low as 0.01 μM bortezomib trigger significant apoptosis (p<0.05).

For the next experiment, the system named is NOXA. Description: NOXA induction in multiple myeloma cell lines (Western blot). It is filed as cell-based. Particulars: RPMI8226 and U266; 24 hours; bortezomib 0.01 to 10 μM, MG-132 10 μM, z-Leu-Leu-Nle-CHO 10 μM. As to the method: as §1, with “Two different multiple myeloma cell lines (RMP18226 and U266) (ATCC, Rockville, Md.) were treated for 24 hours with various concentrations of the proteasome inhibitors bortezomib (0.01 to 10 μM) and MG-132 (10 μM), or the dual inhibitor z-Leu-Leu-Nle-CHO (10 μM). The cells” for “The cells”

Square brackets hold non-standard residues; d marks the D form. Peptide text beside a SMILES is read from it. * marks the point of attachment. Nle = CCCC[C@H](N)C(=O)O; Cbz = O=C(OCc1ccccc1)*

With “5′-AAGTGTCTGAGGCCAGCAAGA-3′ [Notch-1 siRNA]”, in the experiment with cyclins A and B1, the “cyclin B1 protein (Western blot)” value is given as “striking decrease in the steady state levels of cyclin B1 at 48 hours”; the “cyclin mRNA expression (ribonuclease protection assay)” value was “decreases the expression of mRNAs for cyclins B1 and A, but not C, D, or A1”.

For `CC(C)C[C@@H](C=O)NC(=O)[C@H](CC(C)C)NC(=O)[C@H](CC(C)C)NC(=O)OCc1ccccc1` [MG-132, benzoxycarbonyl-Leucyl-Leucyl-Leucyl-aldehyde] (Cbz-Leu-Leu-Leu-aldehyde), in the experiment with RPMI8226 myeloma cells, the apoptotic response result is “triggered significant apoptotic response after 18 hrs”. The NOXA induction result in the experiment on NOXA is “found to induce NOXA”.

Consider `CC(C)C[C@H](NC(=O)[C@H](Cc1ccccc1)NC(=O)c1cnccn1)B(O)O` [bortezomib, N-(2-pyrazine)carbonyl-L-phenylalanine-L-leucine boronic acid], for which, in the experiment on RPMI8226 myeloma cells, the “lowest dose triggering significant apoptosis (p<0.05)” value stood at 0.01 µM and the apoptotic response entry was “triggered significant apoptotic response after 18 hrs”. Besides, the NOXA induction result in the experiment with NOXA was “induces NOXA in a concentration dependent manner”.

Consider `CCCC[C@@H](C=O)NC(=O)[C@H](CC(C)C)NC(=O)[C@H](CC(C)C)NC(=O)OCc1ccccc1` [z-Leu-Leu-Nle-CHO, N-benzyloxycarbonyl-leucyl-leucyl-norleucinal] (Cbz-Leu-Leu-[Nle]-aldehyde), for which the apoptotic response entry in the experiment on RPMI8226 myeloma cells is “triggered significant apoptotic response after 18 hrs”. The “cyclin A and cyclin B protein (Western blot)” value with cyclins A and B1 (0.5 or 1 μM, 24 h) is on record as “dramatically reduced the levels of cyclin A protein at 0.5 μM, whereas cyclin B was decreased at 1 μM”. The NOXA induction result in the experiment with NOXA is reported as “found to induce NOXA”.
